Test results reported in PubChem BioAssay (NCI).
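Cells were grown in 96-well plates and exposed to each compound for 48 hours at five concentrations; endpoints were interpolated linearly between bracketing concentrations, or set to the highest concentration if not reached. The concentration for full growth arrest is given as TGI.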

Key:
Experiment in all cases: inhibition of tumour cell growth, NCI panel, 48 h
[1] = tested on: HCT-15 colon
[2] = tested on: OVCAR-8 ovarian
[3] = tested on: NCI-H460 lung
[4] = tested on: HCT-116 colon
[5] = tested on: U251 CNS
[6] = tested on: HT29 colon
[7] = tested on: HS 578T breast
[8] = tested on: SK-MEL-2 melanoma
[9] = tested on: CCRF-CEM leukemia
[10] = tested on: OVCAR-4 ovarian
[11] = tested on: BT-549 breast
[12] = tested on: A498 renal
[13] = tested on: RXF 393 renal
[14] = tested on: 786-0 renal
[15] = tested on: TK-10 renal
[16] = tested on: COLO 205 colon
[17] = tested on: DU-145 prostate
[18] = tested on: UACC-62 melanoma
[19] = tested on: SF-539 CNS
[20] = tested on: SK-MEL-28 melanoma
[21] = tested on: NCI/ADR-RES ovarian
[22] = tested on: OVCAR-3 ovarian
[23] = tested on: HL-60(TB) leukemia
[24] = tested on: SF-295 CNS
[25] = tested on: MOLT-4 leukemia
[26] = tested on: M14 melanoma
[27] = tested on: NCI-H23 lung
[28] = tested on: OVCAR-5 ovarian
[29] = tested on: SF-268 CNS
[30] = tested on: HOP-92 NSCLC
[31] = tested on: SN12C renal
[32] = tested on: SNB-19 CNS
[33] = tested on: HCC-2998 colon
[34] = tested on: CAKI-1 renal
[35] = tested on: SW-620 colon
[36] = tested on: EKVX NSCLC
[37] = tested on: MDA-MB-435
[38] = tested on: K-562 leukemia
[39] = tested on: IGROV1 ovarian
[40] = tested on: MDA-N
[41] = tested on: PC-3 prostate
[42] = tested on: UO-31 renal
[43] = tested on: NCI-H522 lung
[44] = tested on: KM12 colon
[45] = tested on: T-47D breast
[46] = tested on: MDA-MB-231 breast
[47] = tested on: UACC-257 melanoma
[48] = tested on: SK-OV-3 ovarian
[49] = tested on: LOX IMVI melanoma
[50] = tested on: MALME-3M melanoma
[51] = tested on: NCI-H226 lung
[52] = tested on: ACHN renal
[53] = tested on: A549 NSCLC
[54] = tested on: SK-MEL-5 melanoma

Measured: TGI

CCCNC(C#N)c1ccc(C(C#N)NCCC)cc1 (centres undefined)
> 100 µM: all assays above
